Like-named read-outs stand apart in the source and are kept apart here.
Legend:
CRBN/DDB1 = CRBN/DDB1 (Homo sapiens (Human), UniProt Q96SW2); assay type: binding; conditions: His tagged CRBN+DDB-DLS7+CXU4, Cy5-labeled Thalidomide probe, one hour incubation; read-out: CRBN HTRF IC50
Method: The binding potency was determined using H-TRF assay technology (Perkin Elmer). Compounds were serially diluted in DMSO and 0.2 μL volume was transferred to white 384-well plate.

ER in T47D cells = ER in T47D cells (Homo sapiens (Human), UniProt P03372); experiment: In-cell western (ICW) ER degradation assay in T47D cells (Compounds A1-A70); assay type: cell-based; conditions: for DC50: ER degradation, 0.02 to 300 nM; for Dmax: T47D, read-out: T47D ICW Dmax (%)
Chain of ER in T47D cells (P03372 whole entry): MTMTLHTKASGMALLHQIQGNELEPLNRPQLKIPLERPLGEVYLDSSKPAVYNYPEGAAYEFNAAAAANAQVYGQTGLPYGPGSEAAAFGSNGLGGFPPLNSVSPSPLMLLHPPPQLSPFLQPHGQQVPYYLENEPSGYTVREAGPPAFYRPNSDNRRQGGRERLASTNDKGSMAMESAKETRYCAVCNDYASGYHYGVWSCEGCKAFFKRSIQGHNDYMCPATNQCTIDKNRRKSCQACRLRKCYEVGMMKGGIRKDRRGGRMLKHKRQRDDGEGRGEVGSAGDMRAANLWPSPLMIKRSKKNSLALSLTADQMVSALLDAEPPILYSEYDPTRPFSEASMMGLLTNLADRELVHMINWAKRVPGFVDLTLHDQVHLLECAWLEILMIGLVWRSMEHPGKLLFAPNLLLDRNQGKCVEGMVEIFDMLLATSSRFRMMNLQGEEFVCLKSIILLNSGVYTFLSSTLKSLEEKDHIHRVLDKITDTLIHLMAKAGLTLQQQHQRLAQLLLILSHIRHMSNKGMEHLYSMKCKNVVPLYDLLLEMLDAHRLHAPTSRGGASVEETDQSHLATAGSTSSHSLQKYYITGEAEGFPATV
Method: (§1) ERa degradative activity of compounds can be assessed in MCF-7 and T47D Cells. MCF-7 and T47D cell are seeded and are subsequently treated with the compounds at certain concentrations (e.g., 0.02 to 300 nM). DMSO can be used as vehicle control. Cells are fixed and are blocked with Intercept (PBS) Blocking Buffer (e.g., Li—COR, Odyssey Blocking Buffer), and are stained with ER (e.g., 1:500, Cell signaling) primary antibody for overnight at cold room. Secondary Antibody (e.g., IRDye 800CW Goat anti-Rabbit IgG) and CellTag 700 Stain are added in Intercept (PBS) Blocking Buffer. Finally, cell plate is placed in incubator to dry. Image and signal are captured on Odyssey® DLx Imaging System.
(§2) Day 3: After 16 hrs of compounds treatment, cells were fixed by 4% PFA and permeabilized with elution buffer (0.1% Triton X-100 in 1% PBS Solution). Subsequently, cells were blocked with Intercept (PBS) Blocking Buffer (Li—COR, Odyssey Blocking Buffer), and were stained with ER (1:500, Cell signaling) primary antibody for overnight at cold room.
(§3) Day 4: Remove the buffer, add IRDye 800CW Goat anti-Rabbit IgG Secondary Antibody (1:2000) and CellTag 700 Stain (1:500) in Intercept (PBS) Blocking Buffer. Finally, cell plate is placed in incubator to dry. Image and signal were captured on Odyssey® DLx Imaging System.

ER in MCF-7 cells = ER in MCF-7 cells (Homo sapiens (Human), UniProt P03372); experiment: In-cell western (ICW) ER degradation assay in MCF-7 cells (Compounds A1-A70); assay type: cell-based; conditions: for DC50: ER degradation, MCF-7 cells, 16 hrs treatment, 0.02 to 300 nM, read-out: MCF7 ICW DC50; for Dmax: MCF7, read-out: MCF7 ICW Dmax (%)
Chain of ER in MCF-7 cells (P03372 whole entry): as above
Method: as §1, §2, §3

ER = ER (Homo sapiens (Human), UniProt P03372); experiment: In-cell western blot analysis of relative ER percentage (Compounds B1-B278); assay type: cell-based; conditions: ER degradation, 16 hours, read-out: ICW DC50
Chain of ER (P03372 whole entry): as above
How it was run: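 Cells seeded at 40,000 or 10,000 cells/well and treated with compound (final 0.5% DMSO) for 16 h, then formaldehyde-fixed, Triton-permeabilized and co-stained for ER and GAPDH with 680/800 secondaries; LI-COR plate read. ER level expressed relative to untreated/DMSO-treated wells set at 100%.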

[1] = Cell growth assay (WST-8) (Compounds B1-B278); assay type: cell-based; conditions: 96 h; T47D cell line; WST-8, 4 days; read-out: Cell Growth Inhibition in T47D cell line IC50
How it was run: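 Cells seeded at 1500/well overnight, treated one day later with compound doses for 4 days, then 10% WST-8 added for 2.5 h at 37° C in CO2. Absorbance at 450 nm, expressed relative to vehicle control over three independent repeats.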

Chain of CRBN/DDB1 (Q96SW2 whole entry): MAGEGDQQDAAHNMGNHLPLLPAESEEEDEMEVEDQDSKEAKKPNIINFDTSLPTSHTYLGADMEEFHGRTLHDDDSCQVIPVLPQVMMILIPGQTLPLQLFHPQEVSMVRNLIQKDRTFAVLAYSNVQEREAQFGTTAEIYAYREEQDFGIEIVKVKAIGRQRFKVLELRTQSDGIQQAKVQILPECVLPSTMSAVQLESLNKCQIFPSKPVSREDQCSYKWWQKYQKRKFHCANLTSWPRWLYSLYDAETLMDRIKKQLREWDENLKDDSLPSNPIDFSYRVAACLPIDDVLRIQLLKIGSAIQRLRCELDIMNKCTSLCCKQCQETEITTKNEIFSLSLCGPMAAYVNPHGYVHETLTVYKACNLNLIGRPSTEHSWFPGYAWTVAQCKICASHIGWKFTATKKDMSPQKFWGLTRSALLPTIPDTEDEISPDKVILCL
Chain of CRBN/DDB1 (Q16531 whole entry partner): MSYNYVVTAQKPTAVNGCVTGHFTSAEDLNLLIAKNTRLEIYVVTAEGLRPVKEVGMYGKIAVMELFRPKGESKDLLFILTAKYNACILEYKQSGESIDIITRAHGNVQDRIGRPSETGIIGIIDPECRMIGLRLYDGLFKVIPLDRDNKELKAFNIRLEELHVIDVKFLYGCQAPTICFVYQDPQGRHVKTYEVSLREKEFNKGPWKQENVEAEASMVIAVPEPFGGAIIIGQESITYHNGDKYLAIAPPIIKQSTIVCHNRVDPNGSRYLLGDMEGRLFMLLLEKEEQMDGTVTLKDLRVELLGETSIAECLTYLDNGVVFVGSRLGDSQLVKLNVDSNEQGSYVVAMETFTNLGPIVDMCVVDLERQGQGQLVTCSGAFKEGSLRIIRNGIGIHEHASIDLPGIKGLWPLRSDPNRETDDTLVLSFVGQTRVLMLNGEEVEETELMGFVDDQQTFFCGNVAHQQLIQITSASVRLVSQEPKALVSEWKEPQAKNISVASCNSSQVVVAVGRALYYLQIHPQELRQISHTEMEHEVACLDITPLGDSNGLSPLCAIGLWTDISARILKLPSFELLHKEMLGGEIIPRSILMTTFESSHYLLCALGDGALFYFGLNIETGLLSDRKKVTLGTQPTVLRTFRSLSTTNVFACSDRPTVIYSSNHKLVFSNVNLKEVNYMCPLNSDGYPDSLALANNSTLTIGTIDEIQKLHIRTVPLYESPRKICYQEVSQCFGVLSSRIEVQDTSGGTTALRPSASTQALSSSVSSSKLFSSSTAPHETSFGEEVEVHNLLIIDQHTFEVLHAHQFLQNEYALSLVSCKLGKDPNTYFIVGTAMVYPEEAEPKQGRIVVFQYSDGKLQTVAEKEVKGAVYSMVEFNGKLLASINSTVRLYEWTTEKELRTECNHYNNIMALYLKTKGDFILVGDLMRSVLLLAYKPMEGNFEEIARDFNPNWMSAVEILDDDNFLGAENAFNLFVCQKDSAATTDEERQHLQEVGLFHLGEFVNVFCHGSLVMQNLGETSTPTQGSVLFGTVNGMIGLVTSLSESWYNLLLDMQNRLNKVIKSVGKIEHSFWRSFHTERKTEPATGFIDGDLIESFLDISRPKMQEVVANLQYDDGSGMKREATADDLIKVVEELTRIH

Row | Structure (SMILES) | IC50 (CRBN/DDB1) | further results
1 | C[C@@H]1Cc2c([nH]c3ccccc23)[C@@H](c2cnc(N3CCC(N4CCN(c5ccc(NC6CCC(=O)NC6=O)cc5F)CC4)CC3)nc2)N1CC(F)F (stereo partly drawn) [Compound A1, 3-((4-(4-(1-(5-((1R,3R)-2-(2,2-difluoroethyl)-3-methyl-2,3,4,9-tetrahydro-1H-pyrido[3,4-b]indol-1-yl)pyrimidin-2-yl)piperidin-4-yl)piperazin-1-yl)-3-fluorophenyl)amino)piperidine-2,6-dione] | 500 to 5000 nM | –
2 | C[C@@H]1Cc2c([nH]c3ccccc23)[C@@H](c2cnc(N3CCC(N4CCC(c5ccc(NC6CCC(=O)NC6=O)cc5F)CC4)CC3)nc2)N1CC(F)F (stereo partly drawn) [Compound A3, 3-((4-(1′-(5-((1R,3R)-2-(2,2-difluoroethyl)-3-methyl-2,3,4,9-tetrahydro-1H-pyrido[3,4-b]indol-1-yl)pyrimidin-2-yl)-[1,4′-bipiperidin]-4-yl)-3-fluorophenyl)amino)piperidine-2,6-dione] | 50 to 500 nM | –
3 | C[C@@H]1Cc2c([nH]c3ccccc23)[C@@H](c2cnc(N3C[C@@H]4[C@@H](CN5CCN6c7cc8c(cc7OC[C@@H]6C5)C(=O)N(C5CCC(=O)NC5=O)C8)[C@@H]4C3)nc2)N1CC(F)F (stereo partly drawn) [Compound A4, (S)-3-((S)-3-(((1R,5S,6S)-3-(5-((1R,3R)-2-(2,2-difluoroethyl)-3-methyl-2,3,4,9-tetrahydro-1H-pyrido[3,4-b]indol-1-yl)pyrimidin-2-yl)-3-azabicyclo[3.1.0]hexan-6-yl)methyl)-8-oxo-1,2,3,4,4a,5,8,10-octahydro-9H-pyrazino[1′,2′:4,5][1,4]oxazino[2,3-f]isoindol-9-yl)piperidine-2,6-dione] | 500 to 5000 nM | –
4 | C[C@@H]1Cc2c([nH]c3ccccc23)[C@@H](c2cnc(N3CCC4(CC3)CC(CN3CCN5c6ccc7c(c6OC[C@@H]5C3)CN(C3CCC(=O)NC3=O)C7=O)C4)nc2)N1CC(F)F (stereo partly drawn) [Compound A6, 3-((S)-7-((7-(5-((1R,3R)-2-(2,2-difluoroethyl)-3-methyl-2,3,4,9-tetrahydro-1H-pyrido[3,4-b]indol-1-yl)pyrimidin-2-yl)-7-azaspiro[3.5]nonan-2-yl)methyl)-1-oxo-1,3,5,5a,6,7,8,9-octahydro-2H-pyrazino[1′,2′:4,5][1,4]oxazino[2,3-e]isoindol-2-yl)piperidine-2,6-dione] | < 50 nM | –
5 | COc1ccc(C(=O)N2CCC(CN3CCN(c4ncc([C@@H]5c6[nH]c7ccccc7c6C[C@@H](C)N5CC(F)F)cn4)CC3)CC2)cc1N1CCC(=O)NC1=O [Compound A7, 1-(5-(4-((4-(5-((1R,3R)-2-(2,2-difluoroethyl)-3-methyl-2,3,4,9-tetrahydro-1H-pyrido[3,4-b]indol-1-yl)pyrimidin-2-yl)piperazin-1-yl)methyl)piperidine-1-carbonyl)-2-methoxyphenyl) dihydropyrimidine-2,4(1H,3H)-dione] | 500 to 5000 nM | –
6 | CS(=O)(=O)N1CCc2c([nH]c3ccccc23)[C@H]1c1c(F)cc(N2CCC3(CCN(C(=O)CN4Cc5cc6c(cc5C4)C(=O)N(C4CCC(=O)NC4=O)C6=O)CC3)CC2)cc1F (stereo partly drawn) [Compound A8, 6-(2-(9-(3,5-difluoro-4-((R)-2-(methylsulfonyl)-2,3,4,9-tetrahydro-1H-pyrido[3,4-b]indol-1-yl)phenyl)-3,9-diazaspiro[5.5]undecan-3-yl)-2-oxoethyl)-2-(2,6-dioxopiperidin-3-yl)-6,7-dihydropyrrolo[3,4-f]isoindole-1,3(2H,5H)-dione] | > 5000 nM | –
7 | C[C@@H]1Cc2c([nH]c3ccccc23)[C@@H](c2cnc(N3C[C@@H]4[C@H](CN5CCN6c7cc8c(cc7OC[C@@H]6C5)C(=O)N([C@H]5CCC(=O)NC5=O)C8)[C@@H]4C3)nc2)N1CC(C)(C)F [Compound A13, (S)-3-((S)-3-(((1R,5S,6R)-3-(5-((1R,3R)-2-(2-fluoro-2-methylpropyl)-3-methyl-2,3,4,9-tetrahydro-1H-pyrido[3,4-b]indol-1-yl)pyrimidin-2-yl)-3-azabicyclo[3.1.0]hexan-6-yl)methyl)-8-oxo-1,2,3,4,4a,5,8,10-octahydro-9H-pyrazino[1′,2′:4,5][1,4]oxazino[2,3-f]isoindol-9-yl)piperidine-2,6-dione] | 50 to 500 nM | –
8 | C[C@@H]1Cc2c([nH]c3ccccc23)[C@@H](c2cnc(N3CC[C@@H](CN4CCN5c6ccc7c(c6OC[C@@H]5C4)CN(C4CCC(=O)NC4=O)C7=O)C3)nc2)N1CC(F)F (stereo partly drawn) [Compound A14, 3-((S)-7-(((S)-1-(5-((1R,3R)-2-(2,2-difluoroethyl)-3-methyl-2,3,4,9-tetrahydro-1H-pyrido[3,4-b]indol-1-yl)pyrimidin-2-yl)pyrrolidin-3-yl)methyl)-1-oxo-1,3,5,5a,6,7,8,9-octahydro-2H-pyrazino[1′,2′:4,5][1,4]oxazino[2,3-e]isoindol-2-yl)piperidine-2,6-dione] | < 50 nM | –
9 | Cc1nn(C2CCC(=O)NC2=O)c2ccc(N3CCN(CC4CC5(CCN(c6ncc([C@@H]7c8[nH]c9ccccc9c8C[C@@H](C)N7CC(C)(C)F)cn6)CC5)C4)CC3)cc12 (stereo partly drawn) [Compound A15, 3-(5-(4-((7-(5-((1R,3R)-2-(2-fluoro-2-methylpropyl)-3-methyl-2,3,4,9-tetrahydro-1H-pyrido[3,4-b]indol-1-yl)pyrimidin-2-yl)-7-azaspiro[3.5]nonan-2-yl)methyl)piperazin-1-yl)-3-methyl-1H-indazol-1-yl)piperidine-2,6-dione] | < 50 nM | –
10 | C[C@@H]1Cc2c([nH]c3ccccc23)[C@@H](c2cnc(N3CCC4(CC3)CC(CN3CCN(c5ccc(NC6CCC(=O)NC6=O)cc5F)CC3)C4)nc2)N1CC(F)F (stereo partly drawn) [Compound A16, 3-((4-(4-((7-(5-((1R,3R)-2-(2,2-difluoroethyl)-3-methyl-2,3,4,9-tetrahydro-1H-pyrido[3,4-b]indol-1-yl)pyrimidin-2-yl)-7-azaspiro[3.5]nonan-2-yl)methyl)piperazin-1-yl)-3-fluorophenyl)amino)piperidine-2,6-dione] | 50 to 500 nM | –
11 | COc1cc(N2CCC(CN3CCN4c5cc6c(cc5OC[C@H]4C3)C(=O)N([C@@H]3CCC(=O)NC3=O)C6)CC2)ccc1[C@@H]1c2[nH]c3ccccc3c2C[C@@H](C)N1CC(F)F [Compound A48, (R)-3-((R)-3-((1-(4-((1R,3R)-2-(2,2-difluoroethyl)-3-methyl-2,3,4,9-tetrahydro-1H-pyrido[3,4-b]indol-1-yl)-3-methoxyphenyl)piperidin-4-yl)methyl)-8-oxo-1,2,3,4,4a,5,8,10-octahydro-9H-pyrazino[1′,2′:4,5][1,4]oxazino[2,3-f]isoindol-9-yl)piperidine-2,6-dione] | – | DC50 (ER in T47D cells; T47D cells, 16 hrs treatment): < 1 nM; Dmax (ER in T47D cells; maximal ER degradation, T47D cells, 16 hrs treatment): > 75%; DC50 (ER in MCF-7 cells): < 1 nM; Dmax (ER in MCF-7 cells): > 75%
12 | C[C@H]1Cc2c([nH]c3ccccc23)[C@H](c2cnc(N3CCC4(CC3)C[C@@H](CN3CCN5c6cc7c(cc6OC[C@@H]5C3)C(=O)N([C@@H]3CCC(=O)NC3=O)C7)CO4)nc2)N1CC(F)F [Compound A68, (R)-3-((S)-3-(((S)-8-(5-((1S,3S)-2-(2,2-difluoroethyl)-3-methyl-2,3,4,9-tetrahydro-1H-pyrido[3,4-b]indol-1-yl)pyrimidin-2-yl)-1-oxa-8-azaspiro[4.5]decan-3-yl)methyl)-8-oxo-1,2,3,4,4a,5,8,10-octahydro-9H-pyrazino[1′,2′:4,5][1,4]oxazino[2,3-f]isoindol-9-yl)piperidine-2,6-dione] | – | DC50 (ER in T47D cells; T47D cells, 16 hrs treatment): < 1 nM; Dmax (ER in T47D cells): > 75%; DC50 (ER in MCF-7 cells): < 1 nM; Dmax (ER in MCF-7 cells): 50 to 75%
13 | COc1cc(N2CC3(CCC(CN4CCN5c6cc7c(cc6OC[C@@H]5C4)C(=O)N(C4CCC(=O)NC4=O)C7)CO3)C2)ccc1[C@@H]1c2[nH]c3ccccc3c2C[C@@H](C)N1CC(F)F (stereo partly drawn) [Compound B278, 3-((4aS)-3-((2-(4-((1R,3R)-2-(2,2-difluoroethyl)-3-methyl-2,3,4,9-tetrahydro-1H-pyrido[3,4-b]indol-1-yl)-3-methoxyphenyl)-5-oxa-2-azaspiro[3.5]nonan-7-yl)methyl)-8-oxo-1,2,3,4,4a,5,8,10-octahydro-9H-pyrazino[1′,2′:4,5][1,4]oxazino[2,3-f]isoindol-9-yl)piperidine-2,6-dione] | – | DC50 (ER): 10 to 100 nM; IC50 [1]: 1 to 10 nM

— US20260007681A1, “INDOLE DERIVATIVES AS ESTROGEN RECEPTOR DEGRADERS” (REGENTS OF THE UNIVERSITY OF MICHIGAN, priority 2022, published 2026)
